For one assay, the system named is NF-kB. In words: NF-kB luciferase reporter assay (HepG2 NF-kB-Luc reporter cells, IL-1β stimulated). The format is cell-based, human. Particulars: for IC50: Homo sapiens. On the procedure: HepG2 NF-kB-Luc reporter cells stimulated with IL-1β (20 ng/ml) and the relative NF-kB luciferase activity (RLU) was determined for each of celastrol (compound 1) and each of the exemplary derivative compounds at the following eight point concentrations: 10 μM, 5 μM, 2.5 μM, 1.25 μM, 0.63 μM, 0.31 μM, 0.16 μM, 0.016 μM, and 0 μM). Assay values were plotted (not shown) and IC50 inhibitory concentrations were calculated after normalization using Prizm 9.0 software.
This example illustrates a study of the anti-inflammatory potential of an exemplary celastrol derivative of the present disclosure (compound 22) using an NF-κB luciferase promoter reporter gene assay in the human liver cancer cell line, HepG2.
NF-kB luciferase reporter assay: The celastrol derivative, compound 22 (prepared as described in Example 13) and the parent molecule, compound 1 (celastrol), were freshly dissolved in DMSO. HepG2 NF-κB reporter cells were seeded (2.5×10^4/well) in 96-well plate and then pre-treated with either compound 22 or compound 1 at the 8-point concentrations of 10, 5, 2.5, 1.25, 0.63, 0.31, 0.16, 0.016, or 0 μM, respectively, and the NF-κB promoter was activated by adding IL-1β (20 ng/ml) to the cells. After 18 hours, the cells were harvested by adding the 1× passive cell lysis buffer (Promega) and followed by measurement of the relative NF-kB luciferase activity (RLU) using GloMax discover microplate reader (Promega). Inhibitory concentrations (IC50) after normalization using Prizm 9.0 software.

Assay [1] relates to NLRP3 inflammasome. In words: IL-1β secretion in BMDMs, LPS + Nigericin. The format is cell-based, mouse. Particulars: FIG. 5A; for inhibition of IL-1β secretion: LPS + Nigericin. On the procedure:
(§1) This example illustrates a comparative study of CLM-022 and MCC950 in inhibiting NLRP3 inflammasome activity in mouse and human macrophages.
Bone marrow-derived macrophages (BMDMs) were treated with LPS (100 ng/ml) for 3 hours to induce the expression of inflammatory genes, including TNF-α, NLRP3, and pro-IL-1β. Subsequently, the BMDMs were treated with CLM-022 or MCC950 in a dose range of 0-10 μM for 30 minutes. Then, to fully activate NLRP3-dependent inflammasome activity and cytokine secretion, Nigericin (10 μM) was added to the BMDMs for an additional 30 minutes.

The subject of assay [2] is NLRP3 inflammasome. In words: Secreted IL-1β in conditioned media of BMDC (ELISA), LPS+ATP or LPS+Nigericin. Type of assay: cell-based. As to conditions: 63-500 nM, FIG. 2B. On the procedure:
FIG. 2A depicts western blot images showing the relative NLRP3 inflammasome activity of the compounds 22 (CLM-022) and 1 (CLM-001) by detecting the level of cellular ASC complex and the mature form of IL-1β (15 kDa) in a conditioned media of BMDCs treated with LPS (100 ng/ml) for 3 hours and then the compound at 50 nM, 100 nM, and 500 nM concentration for 30 min, followed by ATP or Nigericin. ASC monomer and β-Actin proteins were used as controls. FIG. 2B depict plots of results showing secreted IL-1β levels measured by ELISA using conditioned media of BMDC treated with the compound 22 or compound 1 at 63 nM, 125 nM, 250 nM, and 500 nM, under NLRP3 inflammasome activation induced either by LPS+ATP or LPS+Nigericin. FIG. 2C depict plots of results showing secreted TNF-α levels measured by ELISA using conditioned media of BMDC treated with the compound 22 or compound 1 at 63 nM, 125 nM, 250 nM, and 500 nM, under NLRP3 inflammasome activation induced either by LPS+ATP or LPS+Nigericin.
(§2) 1. […] After 30 minutes Nigericin (10 μM) or ATP (5 mM) was added (Signal 2) and the level of NLRP3-dependent inflammasome activity was determined by western blotting the treated cells with ASC complex (>48 kDa). […]
For orientation: ELISA stands for enzyme-linked immunosorbent assay.

The test system of assay [3] is NLRP3 inflammasome. In words: ASC complex formation in THP-1 cells (western blot), LPS+Nigericin. The format is cell-based, human. Particulars: THP-1, 50 nM and 100 nM, FIG. 3A. On the procedure:
This example illustrates a study of the anti-inflammatory potential of an exemplary celastrol derivative of the present disclosure (compound 22) using an NLRP3 inflammasome assay in THP-1, a human monocytic cell line, activated with LPS+Nigericin in the presence of compound 22 or the known NLRP3 inhibitor compound, MCC950 (CAS 256373-96-3), as a benchmark molecule.
Human THP-1 cells were treated with LPS+Nigericin as shown previously (FIG. 2) where increasing dose of compound 1, compound 22, or MCC950 were added as indicated.

Assay [4] relates to NLRP3 inflammasome. In words: NLRP3 inflammasome assay in BMDCs: ASC complex formation (western blot). Type of assay: cell-based. Here is the method: FIG. 2A depicts western blot images showing the relative NLRP3 inflammasome activity of the compounds 22 (CLM-022) and 1 (CLM-001) by detecting the level of cellular ASC complex and the mature form of IL-1β (15 kDa) in a conditioned media of BMDCs treated with LPS (100 ng/ml) for 3 hours and then the compound at 50 nM, 100 nM, and 500 nM concentration for 30 min, followed by ATP or Nigericin. ASC monomer and β-Actin proteins were used as controls. FIG. 2B depict plots of results showing secreted IL-1β levels measured by ELISA using conditioned media of BMDC treated with the compound 22 or compound 1 at 63 nM, 125 nM, 250 nM, and 500 nM, under NLRP3 inflammasome activation induced either by LPS+ATP or LPS+Nigericin. FIG. 2C depict plots of results showing secreted TNF-α levels measured by ELISA using conditioned media of BMDC treated with the compound 22 or compound 1 at 63 nM, 125 nM, 250 nM, and 500 nM, under NLRP3 inflammasome activation induced either by LPS+ATP or LPS+Nigericin. […]
as §2
For orientation: Immunoblotting shows a protein as a band on a membrane.

The subject of assay [5] is NLRP3 inflammasome. In words: IL-1β secretion in THP-1 macrophages, LPS + Nigericin. Particulars: human THP-1 macrophages, FIG. 5C. The format is cell-based. On the procedure: as §1
To confirm the inhibitory effect of CLM-022 in human macrophages, THP-1 cells, a human leukemia monocytic cell line, were differentiated into macrophages using phorbol 12-myristate-13-acetate (PMA, 100 ng/ml) treatment for one day. The THP-1 macrophages were then treated with LPS (100 ng/ml) for 3 hours to induce the expression of inflammatory genes. Subsequently, the THP-1 cells were treated with CLM-022 or MCC950 in a dose range of 0-10 μM for 30 minutes. Then, to fully activate NLRP3-dependent inflammasome activity, Nigericin (10 μM) was added to the THP-1 cells for an additional 60 min.

“Also recorded” adds a separate entry of the source. Read-outs that look alike come from different tables or passages of the source.

The results in this text go back to US20260356879A1, “CELASTROL DERIVATIVES” (Celloram Inc., priority 2022, published 2026).

As usually defined, the IC50 is the concentration needed to halve the response being measured.

On to `CC1=C(O)C(=O)C=C2C1=CC=C1[C@@]2(C)CC[C@@]2(C)[C@@H]3C[C@](C)(N(C)C(=O)C(=O)N(C)C)CC[C@]3(C)CC[C@]12C` [Compound 22, N′-[(2R,4aS,6aR,6aS,14aS,14bR)-10-hydroxy-2,4a,6a,6a,9,14a-hexamethyl-11-oxo-1,3,4,5,6,13,14,14b-octahydropicen-2-yl]-N,N,N′-trimethyl-oxamide], for which the concentration for half-maximal inhibition (IC50) came out at 268 nM with NF-kB (HepG2, IL-1β (20 ng/ml), 18 hours, normalized, Example 14, FIG. 1B, read-out: IC50 for NF-κB promoter activity); 268 nM with NF-kB (HepG2 NF-kB-Luc reporter cells, IL-1β (20 ng/ml), Example 13, read-out: NF-kB IC50); 9 nM in the assay with NLRP3 inflammasome [1] (Mus musculus, BMDM, LPS (100 ng/ml) + Nigericin (10 μM), 0-10 μM, read-out: IC50 for inhibition of IL-1β secretion (normalized)); 159 nM in the assay on NLRP3 inflammasome [5] (LPS (100 ng/ml) + Nigericin (10 μM), 0-10 μM, read-out: IC50 for inhibition of IL-1β secretion). In the assay with NF-kB (IL-1β-induced, HepG2, FIG. 1), the “inhibition of NF-kB inflammatory signaling” value was “robust inhibitory potential for IL-1β-induced NF-kB inflammatory signaling pathway superior to celastrol (compound 1) at low concentrations; also recorded: robustly inhibits NF-κB inflammatory signaling”. Moreover, the “% IC50 relative to Celastrol” value in the assay with NF-kB (relative to celastrol (compound 1)) was 51%. Moreover, the “IC50 lower than that of compound 1 by” value with NF-kB (vs compound 1 (IC50=528 nM), Example 14) was determined as 50%. Moreover, the “inhibition of IL-1β secretion” value in the assay with NLRP3 inflammasome [1] is “outperforms the benchmark inflammasome inhibitor compound, MCC950, in inhibiting IL-1β secretion (but not TNF-α secretion)”; in the assay on NLRP3 inflammasome [1] (listed as CLM-022), “significant inhibition of IL-1β secretion”; with NLRP3 inflammasome [2], “more strongly inhibited IL-1β secretion induced by both LPS+ATP and LPS+Nigericin; also recorded: strongly inhibited IL-1β secretion via suppression of NLRP3 inflammasome”; in the assay on NLRP3 inflammasome [5] (LPS + Nigericin), “robustly inhibited IL-1β secretion”. Besides, the ASC complex formation entry with NLRP3 inflammasome [3] is “strongly inhibited this ASC complex formation with an inhibitory capacity that was stronger than that observed for celastrol (compound 1) and MCC950”; in the assay with NLRP3 inflammasome [4] (BMDCs, 50, 100, 500 nM, LPS then ATP or Nigericin, FIG. 2A), “suppressed ASC complex formation more strongly than compound 1”. In addition, in the assay with NLRP3 inflammasome [4] (BMDCs, compared with compound 1), the NLRP3 inflammasome activity entry is “robust inhibitory function on NLRP3 inflammasome activity that was better than that observed for the parental molecule celastrol (compound 1)”.
